Data set [1] deals with IIIB strain of HIV-1. Kind of data set: Anti-HIV-1 activity: protection of infected MT-2 cells, MTT colorimetric method. In kind it is cell-based. The conditions noted are these: for fold lower potency (higher EC50) than the corresponding DMA ether: Table 2b compounds.
Data set [2] has as its system MT-2 human T-cells. Kind of data set: Cytotoxicity: inhibition of MT-2 cell growth. In kind it is cell-based. The text has this: The preparation of the analogues 4a-h involved the reaction between 2-bromothiazole 1 with the corresponding 5-amino-2-R-phenol 2, followed by reaction with 4-bromo-2-methyl-2-butene in presence of Cs2CO3 as a base (Scheme 1; see Table 1 for antiviral activities (EC50) and cytotoxicities (IC50) of these compounds, as determined using human MT-2 cells infected with IIIB strain of HIV-1).
See, Ruiz-Caro, supra. and Lin, et al., Biochem. Pharmacol. 1994, 47, 171-174.

The mark [3] stands for this setting: Table 1, compounds 4a-h, human MT-2 cells infected with IIIB strain of HIV-1, N/A read as no activity, read-out: EC50.
[4] abbreviates: Table 1, cytotoxicity, MT-2 cells, read-out: IC50.
The mark [5] stands for this setting: Table 1B, for 50% protection in MT-2 cells, triplicate samples, NA for EC50 > CC50, read-out: EC50.
Where [6] appears, read: Table 1B, for 50% inhibition of MT-2 cell growth, triplicate samples.
Setting [7] is: Human immunodeficiency virus 1, IIIB, MT2.
The mark [8] stands for this setting: Table 2b, derivatives of pyrimidine 11, NA for EC50 > CC50, read-out: EC50.

Read-outs that look alike come from different tables or passages of the source.

In the case of `CC(C)=CCOc1cc(Nc2nccs2)ccc1C(C)C` [Compound 4g, N-(4-isopropyl-3-(3-methylbut-2-enyloxy)phenylthiazol)-2-amine], the EC50 in data set [1] (setting [3]) stood at 23 µM. Moreover, the IC50 in data set [2] (setting [4]) amounted to 23 µM.

With `CC(C)=CCOc1cc(Nc2nccs2)ccc1C#N` [Compound 4h, N-(4-cyano-3-(3-methylbut-2-enyloxy)phenylthiazol)-2-amine], the EC50 in data set [1] (setting [3]) turned out to be 0.21 µM; in data set [1] (Table 1a, heteroaryl derivatives, N/A read as no activity, read-out: EC50), 0.21 µM. Besides, the IC50 in data set [2] (setting [4]) was determined as 0.75 µM; in data set [2] (Table 1a, cytotoxicity, MT-2 cells, read-out: IC50), 0.75 µM.

For the molecule `COc1ncnc(Nc2ccc(Cl)c(OCC=C(C)C)c2)n1` [Compound 7b], the half-maximal effective concentration (EC50) in data set [1] (setting [5]) worked out at 0.031 µM. In data set [2] (setting [6]), this molecule came in with a half-maximal cytotoxic concentration (CC50) of 18 µM.

Take `CC(C)=CCOc1cc(Nc2ncnc(N)n2)ccc1Cl` [Compound 7c]: in data set [1] (setting [5]), the EC50 was 0.39 µM. Besides, the CC50 in data set [2] (setting [6]) worked out at 48 µM.

For `CNc1ncnc(Nc2ccc(Cl)c(OCC=C(C)C)c2)n1` [Compound 7d], the EC50 in data set [1] (setting [5]) is 0.031 µM. Moreover, half-maximal cytotoxicity in data set [2] (setting [6]) (CC50) was put at 3.1 µM.

For `CC(C)=CCOc1cc(Nc2nc(C)nc(Cl)n2)ccc1Cl` [Compound 7e], the EC50 in data set [1] (setting [5]) is 12 µM. In addition, the CC50 in data set [2] (setting [6]) was determined as 40 µM.

Consider `COc1nc(C)nc(Nc2ccc(Cl)c(OCC=C(C)C)c2)n1` [Compound 7g], for which the EC50 in data set [1] (setting [5]) was 0.1 µM. In data set [2] (setting [6]), this molecule came in with a CC50 of 12 µM.

Consider `COc1nc(Nc2ccc(Cl)c(OCC=C(C)C)c2)nc(OC)n1` [Compound 7h], for which the EC50 in data set [1] (setting [5]) was 0.29 µM. The molecule also showed a half-maximal cytotoxic concentration (CC50) in data set [2] (setting [6]) of 20 µM.

With `COc1nc(Nc2ccc(C#N)c(OCC=C(C)C)c2)nc(OC)n1` [Compound 8h], the 50% effective concentration (EC50) in data set [1] (setting [5]) came out at 0.022 µM. In data set [2] (setting [6]), this molecule gave a CC50 of over 100 µM.

Regarding `CSc1ncnc(Nc2ccc(C#N)c(OCC=C(C)C)c2)n1` [Compound 8i], the EC50 in data set [1] (setting [5]) was 0.005 µM. The molecule further registered a 50% cytotoxic concentration (CC50) in data set [2] (setting [6]) of 8.4 µM.

As for `COc1nc(N)nc(Nc2ccc(C#N)c(OCC=C(C)C)c2)n1` [Compound 8j], the EC50 in data set [1] (setting [5]) was found to be 0.009 µM. This molecule came in with a cytotoxic concentration (CC50) in data set [2] (setting [6]) of 0.11 µM.

Regarding `CNc1ccnc(Nc2ccc(Cl)c(OCC=C(C)C)c2)n1` [Compound 9d], the EC50 in data set [1] (setting [5]) was determined as 0.006 µM. Moreover, the CC50 in data set [2] (setting [6]) was found to be 0.69 µM.

Regarding `COc1cc(OC)nc(Nc2ccc(Cl)c(OCC=C(C)C)c2)n1` [Compound 9h], in data set [1] (setting [5]), the EC50 was 0.25 µM. The molecule further yielded a CC50 in data set [2] (setting [6]) of 28 µM.

For the molecule `CSc1ccnc(Nc2ccc(Cl)c(OCC=C(C)C)c2)n1` [Compound 9i], in data set [1] (setting [5]), the EC50 came to 0.018 µM. This molecule also came in with a CC50 in data set [2] (setting [6]) of 2.8 µM.

As for `COc1cc(N)nc(Nc2ccc(Cl)c(OCC=C(C)C)c2)n1` [Compound 9j], the concentration giving a half-maximal response (EC50) in data set [1] (setting [5]) is 3 µM. For the same molecule, the midpoint of cytotoxicity in data set [2] (setting [6]), the CC50, lay at 19 µM.

With `CCOc1ccnc(Nc2ccc(Cl)c(OCC=C(C)C)c2)n1` [Compound 9k], the EC50 in data set [1] (setting [5]) stood at 0.041 µM. In data set [2] (setting [6]), this molecule gave a half-maximal cytotoxic concentration (CC50) of 19 µM.

Consider `CCc1ccnc(Nc2ccc(Cl)c(OCC=C(C)C)c2)n1` [Compound 9p], for which the 50% effective concentration (EC50) in data set [1] (setting [5]) was determined as 0.016 µM. Besides, in data set [2] (setting [6]), the CC50 is 0.33 µM.

As to `CC(C)=CCOc1cc(Nc2nc(CO)cs2)ccc1C` [Compound 10b, (2-(4-Methyl-3-(3-methylbut-2-enyloxy)phenylamino)thiazol-4-yl)methanol], the response in data set [1] (setting [7]) was half-maximal at 13 µM (EC50). In data set [2] (Homo sapiens, MT2), this molecule showed a 50% inhibitory concentration (IC50) of 23 µM.

`COc1ccc(Nc2nc(CO)cs2)cc1OCC=C(C)C` [Compound 10c, (2-(4-Methoxy-3-(3-methylbut-2-enyloxy)phenylamino)thiazol-4-yl)methanol] showed a concentration giving a half-maximal response (EC50) in data set [1] (setting [7]) of 9 µM. In data set [2] (Homo sapiens, MT2), this molecule registered an IC50 of 80 µM.

Take `CNc1ccnc(Nc2ccc(C#N)c(OCC=C(C)C)c2)n1` [Compound 10d]: in data set [1] (setting [5]), the EC50 was found to be 0.005 µM. This molecule registered a CC50 in data set [2] (setting [6]) of 0.022 µM.

For the molecule `COc1cc(OC)nc(Nc2ccc(C#N)c(OCC=C(C)C)c2)n1` [Compound 10h], the EC50 in data set [1] (setting [5]) stood at 0.16 µM. Also, in data set [2] (setting [6]), the midpoint of cytotoxicity, the CC50, lay at 0.81 µM.

Regarding `C/C=C/COc1cc(Nc2ncccn2)ccc1Cl` [Compound 11a], in data set [1], the “fold lower potency (higher EC50) than the corresponding DMA ether” value is “ca. 10 fold”. In data set [1] (setting [8]), the EC50 is 2.3 µM. Also, in data set [2] (Table 2b, MT-2 cells), the half-maximal cytotoxic concentration (CC50) is 31 µM.

Turning to `Clc1ccc(Nc2ncccn2)cc1Oc1ccccc1` [Compound 11b], in data set [1], the “fold lower potency (higher EC50) than the corresponding DMA ether” value is “ca. 100 fold”. The EC50 in data set [1] (setting [8]) worked out at 13 µM. Besides, the cytotoxic concentration (CC50) in data set [2] (Table 2b, MT-2 cells) was found to be 30 µM.

Values taken from patent US9018209B2, “Compounds and methods for the treatment of viruses and cancer” (Yale University, priority 2005, dated 2015).
